According to patent US5559101A, “L-ribofuranosyl nucleosides” (priority 1994, dated 1996):
Values after ≈ are worked out from the molar mass of the structure shown.

Tests used:
[1] = In vitro survival of bone marrow control cells (radiometric BACTEC); assay type: cell-based; settings: bone marrow cells
From the text: (§1) CELL LINES: Eight different established human cell lines CALU (lung), COLO320 (colon), H578St (breast), HT-29 (colon), MCF-7 (breast), OM-1 (colon), SKLU (lung) and SKMES(lung), and two control cell lines (bone marrow and/or fibroblast cells) were utilized. All cell lines were obtained from the Tumor Cloning Laboratory, Institute for Drug Development, Cancer Therapy and Research Center, San Antonio, Tex. All cell lines grew as monolayers in the appropriate culture medium supplemented with heat-inactivated calf serum. All reagents were obtained from Grand Island Biological Co., Grand Island, N.Y.
(§2) The iv formulations of the compounds of the present invention were prepared with sterile buffered saline and stored at -70° C. until required for testing.
(§3) Following trypsinization, tumor cells were suspended in tissue culture medium and exposed to the antitumor agents continuously at three different concentrations: 10, 1 and 0.1 μg/ml.
(§4) RADIOMETRIC MEASUREMENT OF GROWTH INHIBITION: Growth inhibition was assessed with the BACTEC System 460 (Johnston Laboratories, Towson, Md.) after addition of the antitumor agent to the cell in the respective growth medium containing ^14 C-glucose at a final concentration of 2 μCi/ml.
(§5) Two mls of the tumor cell suspension containing radioactive glucose were seeded into sterile, disposable 15 ml vials by injection through self-sealing rubber-aluminum caps. […] The seeded vials were then incubated at 37° C. Measurement of the release of ^14 CO2 resulting from the metabolism of ^14 C-glucose were performed on days 6, 9, 12 and 15 in the BACTEC instrument. This instrument flushes the ^14 CO2 containing air out of the vials into an ionization chamber that converts dpm to growth index values. […] Each data point represents triplicate values.
(§6) All compounds were dosed on an equimilimolar basis.

CALU (lung) = assay: Radiometric growth inhibition of tumor cells, CALU; assay type: cell-based, human; design: % SURVIVAL TUMOR: concentration or dose not given beside the values
From the text: as §1, §2, §3, §4, §5, §6

COLO320 (colon) = assay: Radiometric growth inhibition of tumor cells, COLO320; assay type: cell-based, human
From the text: as §1, §2, §3, §4, §5, §6

HS578T (breast) = assay: Radiometric growth inhibition of tumor cells, HS578T; assay type: cell-based, human
From the text: as §1, §2, §3, §4, §5, §6

HT29 (colon) = assay: Radiometric growth inhibition of tumor cells, HT29; assay type: cell-based, human; design: % SURVIVAL TUMOR: concentration or dose not given beside the values
From the text: as §1, §2, §3, §4, §5, §6

MCF-7 (breast) = assay: Radiometric growth inhibition of tumor cells, MCF-7; assay type: cell-based, human; design: % SURVIVAL TUMOR: concentration or dose not given beside the values
From the text: as §1, §2, §3, §4, §5, §6

OM-1 (colon) = assay: Radiometric growth inhibition of tumor cells, OM-1; assay type: cell-based, human
From the text: as §1, §2, §3, §4, §5, §6

SKLU (lung) = assay: Radiometric growth inhibition of tumor cells, SKLU; assay type: cell-based, human
From the text: as §1, §2, §3, §4, §5, §6

SKMES (lung) = assay: Radiometric growth inhibition of tumor cells, SKMES; assay type: cell-based, human
From the text: as §1, with “N.Y. […]” for “N.Y.”
RADIOMETRIC MEASUREMENT OF GROWTH INHIBITION: Growth inhibition was assessed with the BACTEC System 460 (Johnston Laboratories, Towson, Md.) after addition of the antitumor agent to the cell in the respective growth medium containing ^14 C-glucose at a final concentration of 2 μCi/ml. […]
Two mls of the tumor cell suspension containing radioactive glucose were seeded into sterile, disposable 15 ml vials by injection through self-sealing rubber-aluminum caps. […] Chemotherapy sensitivity was calculated by comparing the growth index values of drug-treated vials to that observed in control vials. […]

O=c1[nH]cc(F)c(=O)[nH]1 [Example 5-FU, 5-fluorouracil, reference compound]
viability [1]: 1.9% | % SURVIVAL TUMOR (CALU (lung); CALU, continuous exposure): 2.2% | IC50 (CALU (lung); Homo sapiens): < 0.6 µg/mL | IC50 (COLO320 (colon); Homo sapiens, COLO 320): < 0.6 µg/mL | % SURVIVAL TUMOR (COLO320 (colon); human, colo320 colon tumor cells): 1.0% | % SURVIVAL TUMOR (HS578T (breast); HS578T, continuous exposure): 43.5% | IC50 (HS578T (breast); Homo sapiens, Hs-578T): < 0.6 µg/mL | % SURVIVAL TUMOR (HT29 (colon); HT29, continuous exposure): 1.2% | IC50 (HT29 (colon); Homo sapiens, HT-29): 0.613 µg/mL (≈ 4.71 µM) | IC50 (MCF-7 (breast); Homo sapiens, MCF7): < 0.6 µg/mL | % SURVIVAL TUMOR (MCF-7 (breast); MCF-7, continuous exposure): 0.8% | IC50 (OM-1 (colon); Homo sapiens): 1.47 µg/mL (≈ 11.3 µM) | % SURVIVAL TUMOR (OM-1 (colon); human, om-1 colon tumor cells): 1.7% | IC50 (SKLU (lung); Homo sapiens): 1.05 µg/mL (≈ 8.07 µM) | % SURVIVAL TUMOR (SKLU (lung); human, sklu lung tumor cells): 5.0% | IC50 (SKMES (lung); Homo sapiens, concentration required to kill 50%): < 0.6 µg/mL | % SURVIVAL TUMOR (SKMES (lung); continuous exposure): 11.2%
